Assay results as given in patent publication US10787442B2, “Modulators of indoleamine 2,3-dioxygenase” (GLAXOSMITHKLINE INTELLECTUAL PROPERTY DEVELOPMENT LIMITED, priority 2016, dated 2020).
Where two headings read alike, the source gives them in different places.

Legend:
[1] = target: indoleamine 2, 3-dioxygenase (IDO1) (Homo sapiens, UniProt P14902); test: IDO1 HeLa RapidFire MS Assay (kynurenine by mass spectrometry); assay type: cell-based; details: HeLa cells stimulated with IFN-γ, 2 days; recorded as pIC50; read-out: IDO1 HeLa PXC50 (converted)
[2] = system: human epithelial HeLa cells; test: HeLa cytotoxicity assay (CellTiter-Glo); assay type: cell-based; details: cytotoxicity in stimulated HeLa cells, recorded as pCC50
Description: Compounds of the present invention were tested via high-throughput cellular assays utilizing detection of kynurenine via mass spectrometry and cytotoxicity as end-points. […] Compounds with IDO1 inhibitory properties decreased the amount of kynurenine produced by the cells via the tryptophan catabolic pathway. Cellular toxicity due to the effect of compound treatment was measured using CellTiter-Glo® reagent (CTG) (Promega Corporation, Madison, Wis.), which is based on luminescent detection of ATP, an indicator of metabolically active cells.
In preparation for the assays, test compounds were serially diluted 3-fold in DMSO from a typical top concentration of 1 mM or 5 mM and plated at 0.5 μL in 384-well, polystyrene, clear bottom, tissue culture treated plates with lids (Greiner Bio-One, Kremsmünster, Austria) to generate 11-point dose response curves. Low control wells (0% kynurenine or 100% cytotoxicity) contained either 0.5 μL of DMSO in the presence of unstimulated (−IFN-γ) HeLa cells for the mass spectrometry assay or 0.5 μL of DMSO in the absence of cells for the cytotoxicity assay, and high control wells (100% kynurenine or 0% cytotoxicity) contained 0.5 μL of DMSO in the presence of stimulated (+IFN-γ) HeLa cells for both the mass spectrometry and cytotoxicity assays.
Frozen stocks of HeLa cells were washed and recovered in DMEM high glucose medium with HEPES (Thermo Fisher Scientific, Inc., Waltham, Mass.) supplemented with 10% v/v certified fetal bovine serum (FBS) (Thermo Fisher Scientific, Inc., Waltham, Mass.), and 1× penicillin-streptomycin antibiotic solution (Thermo Fisher Scientific, Inc., Waltham, Mass.). The cells were diluted to 100,000 cells/mL in the supplemented DMEM medium. 50 μL of either the cell suspension, for the mass spectrometry assay, or medium alone, for the cytotoxicity assay, were added to the low control wells, on the previously prepared 384-well compound plates, resulting in 5,000 cells/well or 0 cells/well respectively. IFN-γ was added to the remaining cell suspension at a final concentration of 10 nM, and 50 μL of the stimulated cells were added to all remaining wells on the 384-well compound plates. The plates, with lids, were then placed in a 37° C., 5% CO2 humidified incubator for 2 days.
Following incubation, the 384-well plates were removed from the incubator and allowed to equilibrate to room temperature for 30 minutes. For the cytotoxicity assay, CellTiter-Glo® was prepared according to the manufacturer's instructions, and 10 μL were added to each plate well. After a twenty minute incubation at room temperature, luminescence was read on an EnVision® Multilabel Reader (PerkinElmer Inc., Waltham, Mass.). For the mass spectrometry assay, 10 μL of supernatant from each well of the compound-treated plates were added to 40 μL of acetonitrile, containing 10 μM of an internal standard for normalization, in 384-well, polypropylene, V-bottom plates (Greiner Bio-One, Kremsmünster, Austria) to extract the organic analytes. Following centrifugation at 2000 rpm for 10 minutes, 10 μL from each well of the acetonitrile extraction plates were added to 90 μL of sterile, distilled H2O in 384-well, polypropylene, V-bottom plates for analysis of kynurenine and the internal standard on the RapidFire 300 (Agilent Technologies, Santa Clara, Calif.) and 4000 QTRAP MS (SCIEX, Framingham, Mass.). MS data were integrated using Agilent Technologies' RapidFire Integrator software, and data were normalized for analysis as a ratio of kynurenine to the internal standard.

ePL tagged IDO1 = target: T1, ePL tagged IDO1 (Homo sapiens, UniProt P14902); test: CETSA (Cellular Thermal Shifting assay); assay type: binding; details: Hela cells, 3 hours at 37° C., heated at 53° C. for 3 min
T1 construct: expressed in transfected cells; host or cells: HeLa cells transduced with BacMam virus
Description: Cellular Thermal Shifting assays were used to directly monitor the ligand binding to target proteins in cells. Hela cells were transduced with BacMam virus expressing ePL tagged IDO1 overnight. The cells were then plated over the compounds for 3 hours at 37° C. in cell culture medium containing 1% FBS. The plates were then sealed and heated at 53° C. for 3 min. InCell Hunter reagents were added and luminescence was read in 90 min.

T1 sequence (P14902 whole entry): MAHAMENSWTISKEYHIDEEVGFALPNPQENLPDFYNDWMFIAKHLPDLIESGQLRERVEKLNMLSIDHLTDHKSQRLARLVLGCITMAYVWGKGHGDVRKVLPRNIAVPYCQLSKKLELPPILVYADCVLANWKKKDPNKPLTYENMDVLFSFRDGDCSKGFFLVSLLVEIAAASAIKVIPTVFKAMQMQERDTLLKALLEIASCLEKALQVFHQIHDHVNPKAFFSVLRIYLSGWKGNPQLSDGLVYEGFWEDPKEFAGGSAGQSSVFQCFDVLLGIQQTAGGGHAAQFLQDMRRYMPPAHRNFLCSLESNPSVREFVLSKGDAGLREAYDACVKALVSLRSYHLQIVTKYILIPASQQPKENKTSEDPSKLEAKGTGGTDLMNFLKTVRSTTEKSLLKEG
Sequence of indoleamine 2, 3-dioxygenase (IDO1) (P14902 whole entry): as above

`CC(C)CN(c1ncc([C@H](C)CC(=O)O)cc1Nc1ccc(Cl)cn1)C1CCOCC1` [Example 6, (R)-3-(5-((5-chloropyridin-2-yl)amino)-6-(isobutyl(tetrahydro-2H-pyran-4-yl)amino)pyridin-3-yl)butanoic acid] was tested, and the IC50 [1] was 7.94 nM, the HELA_IDO1_TOX_PXC50 [2] was less than 5 and the EC50 (ePL tagged IDO1; first value, read-out: pXC50_1 (converted)) was 575 nM. The EC50 (ePL tagged IDO1; second value, read-out: pXC50_2 (converted)) was 759 nM.
